In ChEMBL document CHEMBL1158647, “Synthesis and Pharmacology of Mangostin-3,6-di-O-glucoside” (1979):
Activity calls are given as the source filed them. The rule behind the calls is not given here.

Key:
Mus musculus [1] = assay: Effect on gross behavioral activity in Swiss albino mouse assessed as decrease in motor activity at 200 mg/kg, ip using smoked drum; format: functional, organism-based; parameters: dose 200 mg/kg
Mus musculus [2] = assay: Effect on gross behavioral activity in Swiss albino mouse assessed as sedation at 100 mg/kg, ip using smoked drum; format: functional, organism-based; parameters: dose 100 mg/kg
Canis familiaris [3] = assay: Increase in carotid blood pressure in anesthetized Mongrel dog at 25 mg/kg, iv in presence of Priscol; format: functional, organism-based; parameters: dose 25 mg/kg; details: Canis lupus familiaris
Mus musculus [4] = assay: Effect on gross behavioral activity in Swiss albino mouse assessed as CNS depression at 100 mg/kg, ip using smoked drum; format: functional, organism-based; parameters: dose 100 mg/kg; details: Central nervous system
Rattus norvegicus = assay: Increase in pentobarbital-induced sleeping time in Wistar albino rat administered 30 mins before pentobarbital challenge relative to control; format: functional
Mus musculus [5] = assay: Effect on gross behavioral activity in Swiss albino mouse assessed as spontaneous motor activity at 200 mg/kg, ip after 45 mins using smoked drum; format: functional, organism-based; parameters: dose 200 mg/kg
Mus musculus [6] = assay: Effect on gross behavioral activity in Swiss albino mouse assessed as CNS depression at 200 mg/kg, ip using smoked drum; format: functional, organism-based; parameters: dose 200 mg/kg; details: Central nervous system
Canis familiaris [7] = assay: Increase in carotid blood pressure in anesthetized Mongrel dog at 25 mg/kg, iv; format: functional, organism-based; parameters: dose 25 mg/kg; details: Canis lupus familiaris
Mus musculus [8] = assay: Effect on gross behavioral activity in Swiss albino mouse assessed as CNS depression at 300 mg/kg, ip using smoked drum; format: functional, organism-based; parameters: dose 300 mg/kg; details: Central nervous system
Mus musculus [9] = assay: Effect on gross behavioral activity in Swiss albino mouse assessed as sedation at 200 mg/kg, ip using smoked drum; format: functional, organism-based; parameters: dose 200 mg/kg
Mus musculus [10] = assay: Effect on gross behavioral activity in Swiss albino mouse assessed as ptosis at 100 mg/kg, ip using smoked drum; format: functional, organism-based; parameters: dose 100 mg/kg
Mus musculus [11] = assay: Effect on gross behavioral activity in Swiss albino mouse assessed as decrease in motor activity at 100 mg/kg, ip using smoked drum; format: functional, organism-based; parameters: dose 100 mg/kg
Canis familiaris [12] = assay: Increase in respiration in anesthetized Mongrel dog at 25 mg/kg, iv; format: functional, organism-based; parameters: dose 25 mg/kg; details: Canis lupus familiaris
Canis familiaris [13] = assay: Increase in intestinal movement in anesthetized Mongrel dog at 25 mg/kg, iv; format: functional, organism-based; parameters: dose 25 mg/kg; details: Canis lupus familiaris
Mus musculus [14] = assay: Effect on gross behavioral activity in Swiss albino mouse assessed as spontaneous motor activity at 5 mg/kg, ip after 45 mins using smoked drum; format: functional, organism-based; parameters: dose 5 mg/kg
Mus musculus [15] = assay: Effect on gross behavioral activity in Swiss albino mouse assessed as ptosis at 200 mg/kg, ip using smoked drum; format: functional, organism-based; parameters: dose 200 mg/kg
Canis familiaris [16] = assay: Increase in carotid blood pressure in anesthetized Mongrel dog at 25 mg/kg, iv in presence of adrenaline; format: functional, organism-based; parameters: dose 25 mg/kg; details: Canis lupus familiaris

Row | Compound | Activity (Mus musculus [1]) | Activity (Mus musculus [2]) | Activity (Canis familiaris [3]) | Activity (Mus musculus [4]) | Activity (Rattus norvegicus) | Activity (Mus musculus [5]) | Activity (Mus musculus [6]) | Activity (Canis familiaris [7]) | Activity (Mus musculus [8]) | Activity (Mus musculus [9]) | Activity (Mus musculus [10]) | Activity (Mus musculus [11]) | Activity (Canis familiaris [12]) | Activity (Canis familiaris [13]) | Activity (Mus musculus [14]) | Activity (Mus musculus [15]) | Activity (Canis familiaris [16])
1 | COc1c(O[C@@H]2O[C@H](CO)[C@@H](O)[C@H](O)[C@H]2O)cc2oc3cc(O[C@@H]4O[C@H](CO)[C@@H](O)[C@H](O)[C@H]4O)c(CC=C(C)C)c(O)c3c(=O)c2c1CC=C(C)C | Active | Active | Active | Active | 53.81% | Active | Active | Active | Active | Active | Active | Active | Active | Active | Active | Active | Active
2 | C[C@H](N)Cc1ccccc1 | – | – | – | – | – | – | – | – | – | – | – | – | – | – | Active | – | –
3 | CN(C)CCCN1c2ccccc2Sc2ccc(Cl)cc21 | – | – | – | – | – | – | – | – | – | – | – | – | – | – | Active | – | –
